Tests used:
Type in all cases: biochemical
CDK4/CycD3 = CDK4/CycD3 (Homo sapiens, UniProt P11802); assay: Determination of CDK activity (Caliper mobility shift, FAM-P8 peptide): CDK4; conditions: CDK4/CycD3; read-out: CDK4 enzymatic inhibitory activity (IC50)
Method: (§1) In vitro, CDK (CDK4, CDK6, CDK1, CDK2, CDK7, and CDK9) kinase activity was tested by the following method.
(§2) CDK and raw materials used here: CDK4/CycD3 (Carna, Cat. No 04-105, Lot. No 10CBS-0429 C, GST-CDK4(1-303end)/GST-CycD3(1-292end)); CDK6/cycD3 (Carna, Cat. No 04-107, Lot. No 09CBS-0622K, GST-CDK6(1-326(end))); CDK1/CyclinB (Millipore, Cat. 14-450k, Lot. No 25729U, His-CDK1+GST-cyclinB); CDK2/CycA2 (Carna, Cat. No 04-103, Lot. No 06CBS-3024, GST-CDK2 (1-298(end))); CDK7/CyclinH/MAT1 (Millipore, Cat. No 14-476M, Lot. No WAB0365-A, His-CDK7+GST-MAT1+cyclinH); CDK9/cyclinTl (Millipore, Cat. No 14-685K, Lot. No. 2476163-A, His-CDK9+cyclinTl); Peptide FAM-P8 (GL Biochem, Cat. No. 112396, Lot. No. P100804-XZ112396); ATP (Sigma, Cat. No. A7699-1G, CAS No. 987-65-5); DMSO (Sigma, Cat. No. D2650, Lot. No. 474382); EDTA (Sigma, Cat. No. E5134, CAS No. 60-00-4); 96-well plate (Corning, Cat. No. 3365, Lot. No. 22008026); 384-well plate (Corning, Cat. No. 3573, Lot. No. 12608008); Staurosporine (Sigma, Cat. No. S4400-1MG, Lot. No. 046K4080).
(§3) 1. Prepared 1× Kinase Buffer and Stop Buffer for the Test
2) 1× Kinase Base Buffer (CDK4).
(§4) 1) Diluted the compound to 50 times of the maximum concentration with 100% DMSO. For example, if the desired maximum inhibitory concentration is 10 μM, then a DMSO solution of 500 μM concentration is required.
(§5) 2) Transferred the compound to a 96-well plate and serially diluted the compound from a 100% DMSO solution at a ratio of 30 μm to 60 μm for a total of 10 concentrations gradients. 3) Transferred 100 μm of 100% DMSO to two empty wells as a no compound control and a no enzyme control.
(§6) 4) Prepared intermediate plate and transferred the compound of 10 μm concentration from the original plate to the intermediate plate, and then 90 μm of 1× kinase buffer was added and mixed by shaking for 10 min.
(§7) 4) Preparing intermediate plate and transferred the compound of […] concentration from the original plate to the intermediate plate, and then 90 μm of 1× kinase buffer was added and mixed by shaking for 10 min.
(§8) 1) Transferred 5 μm of each compound from the 96-well intermediate plate to a 384-well plate. For example, A1 of the 96-well plate was transferred to A1 and A2 of the 384-well plate. A2 of the 96-well plate was transferred to A3 and A4 of the 384-well plate, and so on.
(§9) 1) Prepared a 2.5× enzyme solution: added kinase into 1× kinase base buffer.
(§10) 2) Prepared a 2.5× peptide solution: added FAM-labeled peptide and ATP into the 1× kinase base buffer.
(§11) 3) Transferred the 2.5× enzyme solution to the assay plate: Assay plate already contained 5 μm of 10% DMSO and transferred 10 μm of 2.5× enzyme solution to each well.
(§12) 4) Incubated at room temperature for 10 min.
(§13) 5) Transferred the 2.5× peptide solution to the assay plate: added 10 μm of 2.5× peptide solution to each well of the 384-well assay plate.
(§14) 6) Kinase reaction and termination: incubated at 28° C. for a specified period and added 25 μm of stop buffer to stop the reaction.
(§15) 5. Caliper Reading: Collect Data on Caliper.
(§16) 1) Copied conversion data from Caliper program and Converted conversion values to inhibition values: Inhibition rate (%)=(1−OD value of the compound-OD value of the control well)/(OD value of the control empty-OD value of the control well)*100%.
(§17) 2) Fitted the data in XLFit excel add-in version 4.3.1 to give the corresponding IC50 values.

CDK2/CycA2 = CDK2/CycA2 (Homo sapiens, UniProt P24941); assay: Determination of CDK activity (Caliper mobility shift, FAM-P8 peptide): CDK2; conditions: CDK2/CycA2; read-out: CDK2 enzymatic inhibitory activity (IC50)
Method: as §1, §3
(§18) 1) 1× Kinase Base Buffer (CDK1, 2, and 6).
as §4, §5
(§19) 1) Transferred 5 μm of each compound from the 96-well intermediate plate to a 384-well plate. […] A2 of the 96-well plate was transferred to A3 and A4 of the 384-well plate, and so on.
as §9, §10, §11, §12, §13, §14, §15, §16, §17

CDK1/CyclinB = CDK1/CyclinB (Homo sapiens, UniProt P06493); assay: Determination of CDK activity (Caliper mobility shift, FAM-P8 peptide): CDK1; conditions: CDK1/CyclinB; read-out: CDK1 enzymatic inhibitory activity (IC50)
Method: as §1, §3, §18, §4, §5, §19, §9, §10, §11, §12, §13, §14, §15, §16, §17

CDK9/cyclinTl = CDK9/cyclinTl (Homo sapiens, UniProt P50750); assay: Determination of CDK activity (Caliper mobility shift, FAM-P8 peptide): CDK9; conditions: CDK9/cyclinTl; read-out: CDK9 enzymatic inhibitory activity (IC50)
Method: as §1, §3
(§20) 3) 1× Kinase Base Buffer (CDK7 and 9).
as §4, §5, §19, §9, §10, §11, §12, §13, §14, §15, §16, §17

CDK7/CyclinH/MAT1 = CDK7/CyclinH/MAT1 (Homo sapiens, UniProt P50613); assay: Determination of CDK activity (Caliper mobility shift, FAM-P8 peptide): CDK7; conditions: CDK7/CyclinH/MAT1; read-out: CDK7 enzymatic inhibitory activity (IC50)
Method: as §1, §2, §3, §20, §4, §5, §6, §7, §8, §9, §10, §11, §12, §13, §14, §15, §16, §17

CDK6/cycD3 = CDK6/cycD3 (Homo sapiens, UniProt Q00534); assay: Determination of CDK activity (Caliper mobility shift, FAM-P8 peptide): CDK6; conditions: CDK6/cycD3; read-out: CDK6 enzymatic inhibitory activity (IC50)
Method: as §1, §2, §3, §18, §4, §5, §6, §7, §8, §9, §10, §11, §12, §13, §14, §15, §16, §17

Chain of CDK4/CycD3 (P11802 whole entry): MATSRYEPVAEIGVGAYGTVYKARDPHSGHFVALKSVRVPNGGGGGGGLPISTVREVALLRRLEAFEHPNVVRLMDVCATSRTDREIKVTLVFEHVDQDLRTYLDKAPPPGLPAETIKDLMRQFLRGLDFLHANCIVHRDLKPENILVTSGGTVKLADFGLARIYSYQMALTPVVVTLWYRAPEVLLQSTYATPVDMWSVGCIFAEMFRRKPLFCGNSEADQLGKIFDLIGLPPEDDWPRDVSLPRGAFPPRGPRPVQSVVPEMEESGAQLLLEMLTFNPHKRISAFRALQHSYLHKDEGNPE
Chain of CDK4/CycD3 (P30281 whole entry partner): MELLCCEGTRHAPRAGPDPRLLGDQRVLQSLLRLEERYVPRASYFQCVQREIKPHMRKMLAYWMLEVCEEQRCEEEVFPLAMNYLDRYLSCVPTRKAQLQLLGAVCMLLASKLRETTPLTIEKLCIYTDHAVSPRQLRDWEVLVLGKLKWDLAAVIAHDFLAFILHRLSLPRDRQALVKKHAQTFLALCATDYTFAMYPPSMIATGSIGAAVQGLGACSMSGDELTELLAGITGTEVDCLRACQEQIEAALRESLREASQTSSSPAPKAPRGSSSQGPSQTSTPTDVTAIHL
Chain of CDK7/CyclinH/MAT1 (P50613 whole entry): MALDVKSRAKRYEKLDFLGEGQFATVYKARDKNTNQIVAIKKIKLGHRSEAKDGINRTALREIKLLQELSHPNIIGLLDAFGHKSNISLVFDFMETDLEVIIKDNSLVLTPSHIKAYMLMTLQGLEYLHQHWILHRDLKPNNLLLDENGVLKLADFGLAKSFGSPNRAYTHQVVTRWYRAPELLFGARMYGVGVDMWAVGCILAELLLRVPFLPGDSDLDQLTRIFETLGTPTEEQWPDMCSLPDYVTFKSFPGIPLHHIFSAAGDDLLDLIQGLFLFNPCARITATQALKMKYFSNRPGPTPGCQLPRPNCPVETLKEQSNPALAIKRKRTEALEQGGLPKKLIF
Chain of CDK7/CyclinH/MAT1 (P51946 whole entry partner): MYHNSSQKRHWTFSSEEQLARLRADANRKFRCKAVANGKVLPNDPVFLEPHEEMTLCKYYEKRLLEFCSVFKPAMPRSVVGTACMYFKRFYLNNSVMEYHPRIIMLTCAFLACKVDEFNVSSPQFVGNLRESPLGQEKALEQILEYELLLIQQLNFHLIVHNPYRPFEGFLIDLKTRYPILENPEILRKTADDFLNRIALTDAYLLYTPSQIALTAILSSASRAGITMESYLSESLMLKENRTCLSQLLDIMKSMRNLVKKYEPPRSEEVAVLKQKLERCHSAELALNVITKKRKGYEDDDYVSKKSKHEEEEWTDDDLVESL
Chain of CDK7/CyclinH/MAT1 (P51948 whole entry partner): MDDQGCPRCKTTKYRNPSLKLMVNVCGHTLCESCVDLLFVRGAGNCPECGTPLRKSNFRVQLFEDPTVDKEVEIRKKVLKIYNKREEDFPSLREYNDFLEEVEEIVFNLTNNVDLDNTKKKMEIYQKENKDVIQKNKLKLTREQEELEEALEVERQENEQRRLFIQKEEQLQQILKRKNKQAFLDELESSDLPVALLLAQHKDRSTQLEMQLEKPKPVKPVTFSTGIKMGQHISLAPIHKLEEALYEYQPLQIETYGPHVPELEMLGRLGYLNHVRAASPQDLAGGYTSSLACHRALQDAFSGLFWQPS
Chain of CDK6/cycD3 (Q00534 whole entry): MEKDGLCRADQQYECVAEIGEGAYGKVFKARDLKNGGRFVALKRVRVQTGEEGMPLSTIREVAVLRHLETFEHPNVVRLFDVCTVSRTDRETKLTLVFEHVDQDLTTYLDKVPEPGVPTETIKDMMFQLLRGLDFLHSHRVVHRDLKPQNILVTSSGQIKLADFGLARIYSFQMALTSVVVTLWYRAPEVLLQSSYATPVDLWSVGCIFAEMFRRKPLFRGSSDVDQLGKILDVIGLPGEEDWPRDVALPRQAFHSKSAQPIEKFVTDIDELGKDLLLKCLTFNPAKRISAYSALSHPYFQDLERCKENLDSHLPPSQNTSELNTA
Chain of CDK6/cycD3 (P30281 whole entry partner): as the sequence (P30281 whole entry partner) above
Chain of CDK1/CyclinB (P06493 whole entry): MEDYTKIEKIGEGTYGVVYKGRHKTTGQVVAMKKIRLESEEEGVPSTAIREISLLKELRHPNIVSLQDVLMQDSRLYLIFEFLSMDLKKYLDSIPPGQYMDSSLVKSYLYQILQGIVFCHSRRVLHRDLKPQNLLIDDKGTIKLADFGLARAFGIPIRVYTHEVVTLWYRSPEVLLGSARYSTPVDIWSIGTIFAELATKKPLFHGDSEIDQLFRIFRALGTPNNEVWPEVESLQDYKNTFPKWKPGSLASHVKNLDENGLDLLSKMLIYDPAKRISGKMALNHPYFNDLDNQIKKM
Chain of CDK1/CyclinB (P14635 whole entry partner): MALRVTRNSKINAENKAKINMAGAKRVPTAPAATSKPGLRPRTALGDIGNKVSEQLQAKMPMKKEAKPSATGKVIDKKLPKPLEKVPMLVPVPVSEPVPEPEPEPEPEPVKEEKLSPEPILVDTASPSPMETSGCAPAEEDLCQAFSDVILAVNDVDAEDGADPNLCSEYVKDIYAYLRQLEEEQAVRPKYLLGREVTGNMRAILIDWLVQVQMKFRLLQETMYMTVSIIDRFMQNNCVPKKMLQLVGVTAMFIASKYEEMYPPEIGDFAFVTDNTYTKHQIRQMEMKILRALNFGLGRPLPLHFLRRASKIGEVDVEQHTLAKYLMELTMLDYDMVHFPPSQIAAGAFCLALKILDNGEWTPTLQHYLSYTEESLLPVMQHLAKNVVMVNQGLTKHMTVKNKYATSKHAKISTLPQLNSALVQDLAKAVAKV
Chain of CDK9/cyclinTl (P50750 whole entry): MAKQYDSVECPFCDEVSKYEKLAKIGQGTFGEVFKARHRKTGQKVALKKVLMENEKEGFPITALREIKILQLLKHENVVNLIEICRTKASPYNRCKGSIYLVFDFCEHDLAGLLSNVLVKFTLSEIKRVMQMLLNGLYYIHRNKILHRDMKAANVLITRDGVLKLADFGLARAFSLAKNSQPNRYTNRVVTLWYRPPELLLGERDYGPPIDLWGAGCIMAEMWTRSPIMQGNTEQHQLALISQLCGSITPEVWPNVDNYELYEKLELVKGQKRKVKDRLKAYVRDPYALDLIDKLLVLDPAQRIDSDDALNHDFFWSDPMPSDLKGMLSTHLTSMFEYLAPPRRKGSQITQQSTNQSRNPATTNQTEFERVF
Chain of CDK9/cyclinTl (O60563 whole entry partner): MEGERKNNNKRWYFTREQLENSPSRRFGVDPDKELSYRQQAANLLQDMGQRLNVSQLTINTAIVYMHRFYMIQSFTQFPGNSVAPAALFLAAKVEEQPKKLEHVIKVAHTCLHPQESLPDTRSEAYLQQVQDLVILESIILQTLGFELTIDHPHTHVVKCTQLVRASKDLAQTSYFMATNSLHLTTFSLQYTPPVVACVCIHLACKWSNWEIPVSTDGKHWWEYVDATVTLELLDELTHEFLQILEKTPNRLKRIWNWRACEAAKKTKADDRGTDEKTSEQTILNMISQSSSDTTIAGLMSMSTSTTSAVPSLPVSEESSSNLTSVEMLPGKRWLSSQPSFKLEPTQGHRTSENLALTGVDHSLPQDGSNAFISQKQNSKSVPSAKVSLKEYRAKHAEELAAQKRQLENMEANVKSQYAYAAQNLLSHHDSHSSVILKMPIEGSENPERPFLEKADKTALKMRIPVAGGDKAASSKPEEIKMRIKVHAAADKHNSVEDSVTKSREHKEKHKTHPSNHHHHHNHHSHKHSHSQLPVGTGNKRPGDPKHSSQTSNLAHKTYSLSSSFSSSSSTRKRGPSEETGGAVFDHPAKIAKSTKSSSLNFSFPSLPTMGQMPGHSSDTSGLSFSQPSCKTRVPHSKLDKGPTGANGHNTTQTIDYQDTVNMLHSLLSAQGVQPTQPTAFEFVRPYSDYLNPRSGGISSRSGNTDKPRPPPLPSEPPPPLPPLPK

SMILES | IC50 (CDK4/CycD3) | IC50 (CDK2/CycA2) | IC50 (CDK1/CyclinB) | IC50 (CDK9/cyclinTl) | IC50 (CDK7/CyclinH/MAT1) | IC50 (CDK6/cycD3)
C=C(c1ccc(Nc2ncc(F)c(-c3cc(F)c4nc(C)n(C(C)C)c4c3)n2)nc1)N1CCN(CC)CC1 [Example 36] | 100 to 500 nM | 500 to 1000 nM | 500 to 1000 nM | 500 to 1000 nM | 1000 to 10000 nM | 100 to 500 nM
CC(=C1CCN(C)CC1)c1ccc(Nc2ncc(F)c(-c3cc(F)c4nc(C)n(C(C)C)c4c3)n2)nc1 [Example 62] | < 100 nM | 100 to 500 nM | 500 to 1000 nM | 500 to 1000 nM | 1000 to 10000 nM | 500 to 1000 nM
CCN1CCC(C(OC(C)=O)c2ccc(Nc3ncc(F)c(-c4cc(F)c5nc(C)n(C(C)C)c5c4)n3)nc2)CC1 (single isomer, unassigned) [Example 72, (R or S)-(1-ethylpiperidin-4-yl) (6-((5-fluoro-4-(4-fluoro-1-isopropyl-2-methyl-1H-benzo[d]imidazol-6-yl)pyrimidin-2-yl)amino)pyridin-3-yl) methyl acetate] | < 100 nM | < 100 nM | 100 to 500 nM | 100 to 500 nM | 1000 to 10000 nM | < 100 nM
CC[C@H](c1ccc(Nc2ncc(F)c(-c3cc(F)c4nc(C)n(C(C)C)c4c3)n2)nc1)C1CCN(CC)CC1 [Example 26] | 100 to 500 nM | 500 to 1000 nM | 500 to 1000 nM | 500 to 1000 nM | 1000 to 10000 nM | 100 to 500 nM
CCN1CCC([C@@H](OC)c2ccc(Nc3ncc(F)c(-c4cc(F)c5nc(C)n(C(C)C)c5c4)n3)nc2)CC1 [Example 45] | < 100 nM | < 100 nM | 100 to 500 nM | 100 to 500 nM | 1000 to 10000 nM | 100 to 500 nM
CCN1CCC(=C(C)c2ccc(Nc3ncc(F)c(-c4cc(F)c5nc(C)n(C(C)C)c5c4)n3)nc2)CC1 [Example 58, N-(5-(1-(1-ethylpiperidin-4-ylidene)ethyl)pyridin-2-yl)-5-fluoro-4-(4-fluoro-1-isopropyl-2-methyl-1H-benzo[d]imidazol-6-yl)pyrimidin-2-amine] | < 100 nM | 100 to 500 nM | 500 to 1000 nM | 100 to 500 nM | 1000 to 10000 nM | 100 to 500 nM
Cc1nc2c(F)cc(-c3nc(Nc4ccc(C=C5CCN(CC(F)(F)F)CC5)cn4)ncc3F)cc2n1C(C)C [Example 70] | < 100 nM | < 100 nM | 100 to 500 nM | 100 to 500 nM | 1000 to 10000 nM | < 100 nM
Cc1nc2c(F)cc(-c3nc(Nc4ccc(C=C5CCN(CCO)CC5)cn4)ncc3F)cc2n1C(C)C [Example 67] | < 100 nM | < 100 nM | 100 to 500 nM | 100 to 500 nM | 1000 to 10000 nM | < 100 nM
CCN1CCC(C(C)c2ccc(Nc3ncc(F)c(-c4cc(F)c5nc(C)n(C(C)C)c5c4)n3)nc2)CC1 (racemic) [Example 16, N-(5-(1-(1-ethylpiperidin-4-yl)ethyl)pyridin-2-yl)-5-fluoro-4-(4-fluoro-1-isopropyl-2-methyl-1H-benzo[d]imidazol-6-yl)pyrimidin-2-amine] | < 100 nM | < 100 nM | 100 to 500 nM | 100 to 500 nM | 1000 to 10000 nM | < 100 nM
Cc1nc2c(F)cc(-c3nc(Nc4ccc([C@H](C)C5CCN(CC(F)F)CC5)cn4)ncc3F)cc2n1C(C)C [Example 83] | < 100 nM | < 100 nM | 100 to 500 nM | 100 to 500 nM | 1000 to 10000 nM | < 100 nM
Cc1nc2c(F)cc(-c3nc(Nc4ccc([C@@H](C)C5CCN(C6CC6)CC5)cn4)ncc3F)cc2n1C(C)C [Example 76] | < 100 nM | 100 to 500 nM | 500 to 1000 nM | 100 to 500 nM | 1000 to 10000 nM | 100 to 500 nM
COCCN1CCC([C@@H](C)c2ccc(Nc3ncc(F)c(-c4cc(F)c5nc(C)n(C(C)C)c5c4)n3)nc2)CC1 (single isomer, unassigned) [Example 79] | < 100 nM | < 100 nM | 100 to 500 nM | 100 to 500 nM | 1000 to 10000 nM | < 100 nM
Cc1nc2c(F)cc(-c3nc(Nc4ccc([C@@H](O)C5CCN(C)CC5)cn4)ncc3F)cc2n1C(C)C [Example 50] | < 100 nM | < 100 nM | < 100 nM | 100 to 500 nM | 100 to 500 nM | 100 to 500 nM
CC[C@@H](c1ccc(Nc2ncc(F)c(-c3cc(F)c4nc(C)n(C(C)C)c4c3)n2)nc1)N1CCNCC1 [Example 4] | < 100 nM | 1000 to 10000 nM | 10000 to 100000 nM | 1000 to 10000 nM | 1000 to 10000 nM | 500 to 1000 nM
COCCN1CCC(=Cc2ccc(Nc3ncc(F)c(-c4cc(F)c5nc(C)n(C(C)C)c5c4)n3)nc2)CC1 [Example 68] | < 100 nM | < 100 nM | 100 to 500 nM | 100 to 500 nM | 1000 to 10000 nM | < 100 nM
Cc1nc2c(F)cc(-c3nc(Nc4ccc([C@H](O)C5CCN(C)CC5)cn4)ncc3F)cc2n1C(C)C [Example 49] | < 100 nM | 100 to 500 nM | 100 to 500 nM | 100 to 500 nM | 100 to 500 nM | < 100 nM

Source: US11179391B2, “Compound with kinase inhibitory activity and preparation method and use thereof” (priority 2017, dated 2021)
